Results: US8242274B2, “Triazolopyridine kinase inhibitors useful for the treatment of degenerative and inflammatory diseases” (Galapagos NV, priority 2008, dated 2012)
Blank lines part the entries; values can stand above or below the compound they belong to.

Assays:
[1] = system: Collagen Induced Arthritis (CIA); assay: rat CIA model; format: in vivo
Method: Completed Freund's adjuvant (CFA) and incomplete Freund's adjuvant (IFA) were purchased from Difco. Bovine collagen type II (CII), lipopolysaccharide (LPS), and Enbrel were obtained from Chondrex (Isle d'Abeau, France); Sigma (P4252, L'Isle d'Abeau, France), Whyett (25 mg injectable syringe, France) Acros Organics (Palo Alto, Calif.), respectively. All other reagents used were of reagent grade and all solvents were of analytical grade.
Dark Agouti rats (male, 7-8 weeks old) were obtained from Harlan Laboratories (Maison-Alfort, France). Rats were kept on a 12 hours light/dark cycle (0700-1900). The temperature was maintained at 22° C., and food and water were provided ad libitum.
One day before the experiment, CII solution (2 mg/mL) was prepared with 0.05 M acetic acid and stored at 4° C. Just before the immunization, equal volumes of adjuvant (IFA) and CII were mixed by a homogenizer in a pre-cooled glass bottle in an ice water bath. Extra adjuvant and prolonged homogenization might be required if an emulsion is not formed. 0.2 mL of the emulsion was injected intradermally at the base of the tail of each rat on day 1, a second booster intradermal injection (CII solution at 2 mg/mL in CFA 0.1 mL saline) was performed on day 9. This immunization method was modified from published methods (Sims et al, 2004; Jou et al., 2005).
The therapeutic effects of the test compounds were tested in the rat CIA model. Rats were randomly divided into equal groups and each group contained 10 rats. All rats were immunized on day 1 and boosted on day 9. Therapeutic dosing lasted from day 16 to day 30. The negative control group was treated with vehicle (MC 0.5%) and the positive control group with Enbrel (10 mg/kg, 3× week, s.c.). A compound of interest was typically tested at 3 doses, e.g. 3, 10, 30 mg/kg, p.o.
Arthritis was scored according to the method of Khachigian 2006, Lin et al 2007 and Nishida et al. 2004). The swelling of each of the four paws was ranked with the arthritic score as follows: 0—no symptoms; 1—mild, but definite redness and swelling of one type of joint such as the ankle or wrist, or apparent redness and swelling limited to individual digits, regardless of the number of affected digits; 2—moderate redness and swelling of two or more types of joints; 3—severe redness and swelling of the entire paw including digits; 4—maximally inflamed limb with involvement of multiple joints (maximum cumulative clinical arthritis score 16 per animal) (Nishida et al., 2004).
The change in body weight (%) after onset of arthritis was calculated as follows: […]
X-ray photos were taken of the hind paws of each individual animal. […]

TNF release = assay: Septic shock model (LPS); format: in vivo, mice; settings: for reduction in the TNF release: statistically significant
Method: Injection of lipopolysaccharide (LPS) induces a rapid release of soluble tumour necrosis factor (TNF-alpha) into the periphery. This model is used to analyse prospective blockers of TNF release in vivo.
Six BALB/cJ female mice (20 g) per group were treated at the intended dosing once, po. Thirty minutes later, LPS (15 μg/kg; E. Coli serotype 0111:B4) was injected ip. Ninety minutes later, mice were euthanized and blood was collected. Circulating TNF alpha levels were determined using commercially available ELISA kits. Dexamethasone (5 μg/kg) was used as a reference anti-inflammatory compound. Selected compounds are tested at one or multiple doses, e.g. 3 and/or 10 and/or 30 mg/kg, po.

[2] = biological target: T1, Recombinant human JAK3 catalytic domain (Homo sapiens, UniProt P52333); assay: JAK3 inhibition assay; format: biochemical; settings: semi-quantitative score
T1 construct: Recombinant human JAK3 catalytic domain (amino acids 781-1124; catalog number PV3855); purchased Invitrogen PV3855
T1 sequence (P52333 781-1124): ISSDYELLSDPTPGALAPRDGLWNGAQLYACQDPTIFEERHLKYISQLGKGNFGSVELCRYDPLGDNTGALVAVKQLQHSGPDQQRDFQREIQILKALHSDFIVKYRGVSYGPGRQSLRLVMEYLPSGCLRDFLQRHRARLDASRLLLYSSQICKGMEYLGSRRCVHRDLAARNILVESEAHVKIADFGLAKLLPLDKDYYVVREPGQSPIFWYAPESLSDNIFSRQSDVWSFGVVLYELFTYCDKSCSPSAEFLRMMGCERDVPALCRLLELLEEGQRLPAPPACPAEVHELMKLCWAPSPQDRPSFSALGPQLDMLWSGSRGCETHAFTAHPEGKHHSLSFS
Method: Recombinant human JAK3 catalytic domain (amino acids 781-1124; catalog number PV3855) was purchased from Invitrogen. 0.025 mU of JAK3 was incubated with 2.5 μg polyGT substrate (Sigma catalog number P0275) in kinase reaction buffer (25 mM Tris pH 7.5, 0.5 mM EGTA, 0.5 mM Na3VO4, 5 mM b-glycerolphosphate, 0.01% Triton X-100, 1 μM non-radioactive ATP, 0.25 μCi 33P-gamma-ATP (GE Healthcare, catalog number AH9968) final concentrations) with or without 5 μL containing test compound or vehicle (DMSO, 1% final concentration), in a total volume of 25 μL, in a polypropylene 96-well plate (Greiner, V-bottom). After 105 min at 30° C., reactions were stopped by adding of 25 μL/well of 150 mM phosphoric acid. All of the terminated kinase reaction was transferred to prewashed (75 mM phosphoric acid) 96 well filter plates (Perkin Elmer catalog number 6005177) using a cell harvester (Perkin Elmer). Plates were washed 6 times with 300 μL per well of a 75 mM phosphoric acid solution and the bottom of the plates was sealed. 40 μL/well of Microscint-20 was added, the top of the plates was sealed and readout was performed using the Topcount (Perkin Elmer). Kinase activity was calculated by subtracting counts per minute (cpm) obtained in the presence of a positive control inhibitor (10 μM staurosporine) from cpm obtained in the presence of vehicle. The ability of a test compound to inhibit this activity was determined as: Percentage inhibition=((cpm determined for sample with test compound present−cpm determined for sample with positive control inhibitor) divided by (cpm determined in the presence of vehicle−cpm determined for sample with positive control inhibitor))*100%.
Dose dilution series were prepared for the compounds enabling the testing of dose-response effects in the JAK3 assay and the calculation of the IC50 for each compound. Each compound was routinely tested at concentration of 20 μM followed by a 1/3 serial dilution, 8 points (20 μM-6.67 μM-2.22 μM-740 nM-247 nM-82 nM-27 nM-9 nM) in a final concentration of 1% DMSO.

SMILES: O=C(Nc1nc2cccc(-c3ccc(OCc4ccccn4)cc3)n2n1)C1CC1 [Compound 37, N-(5-(4-(pyridin-2-ylmethoxy)phenyl)-[1,2,4]triazolo[1,5-a]pyridin-2-yl)cyclopropanecarboxamide]
activity in the rat CIA study ([1]; 10 mg/kg): active
activity in the septic shock model (TNF release; 3 mg/kg): active

SMILES: N#Cc1ccc(COc2ccc(-c3cccc4nc(NC(=O)C5CC5)nn34)cc2)cn1 [Compound 176, N-(5-(4-((6-cyanopyridin-3-yl)methoxy)phenyl)-[1,2,4]triazolo[1,5-a]pyridin-2-yl)cyclopropanecarboxamide]
IC50 [2]: 1 to 100 nM
clinical score, rat CIA study ([1]; 3 mg/kg): Statistical significance
paw swelling, rat CIA study ([1]; 3 mg/kg): Statistical significance
efficacy in the rat CIA study, all readouts ([1]; rat, p.o., day 16 to day 30): efficacious in all readouts
reduction in the TNF release (TNF release; 3 mg/kg po): > 50%
reduction in the TNF release (TNF release; 10 mg/kg po): > 50%

SMILES: O=C(Nc1nc2cccc(-c3ccc(NCc4ccccc4)cc3)n2n1)C1CC1 [Compound 72, N-(5-(4-(benzylamino)phenyl)-[1,2,4]triazolo[1,5-a]pyridin-2-yl)cyclopropanecarboxamide]
IC50 [2]: > 501 nM

More lines, main results first:

IC50 [2]: 1 to 100 nM
SMILES: O=C(Nc1nc2cccc(-c3ccc(OCc4ccccc4)cc3)n2n1)C1CC1 [Compound 12, N-(5-(4-(benzyloxy)phenyl)-[1,2,4]triazolo[1,5-a]pyridin-2-yl)cyclopropanecarboxamide]

IC50 [2]: 101 to 500 nM
SMILES: O=C(Nc1nc2cccc(-c3ccc(OCc4cccnc4)cc3)n2n1)C1CC1 [Compound 36, N-(5-(4-(pyridin-3-ylmethoxy)phenyl)-[1,2,4]triazolo[1,5-a]pyridin-2-yl)cyclopropanecarboxamide]
activity in the rat CIA study ([1]; 30 mg/kg): active
activity in the septic shock model (TNF release; 30 mg/kg): active

IC50 [2]: > 501 nM
SMILES: O=C(Nc1nc2cccc(-c3ccc(OCc4ccccc4)nc3)n2n1)C1CC1 [Compound 57, Cyclopropanecarboxylic acid [5-(6-benzyloxy-pyridin-3-yl)-[1,2,4]triazolo[1,5-a]pyridin-2-yl]-amide]
